For this test, the target named is T1, lipase.
T1 construct: gene PNLIP; pig pancreas is only the usual preparation
Nature of the test: 4-nitrophenyl butyrate hydrolysis, absorbance at […] nm. As to conditions: potassium phosphate pH 7.0, 37 °C, 10 min, standard drug, covalent. In kind it is biochemical.

≈ marks a conversion by molar mass, not a printed value.

As for `CCCCCCCCCCC[C@@H](C[C@@H]1OC(=O)[C@H]1CCCCCC)OC(=O)[C@H](CC(C)C)NC=O` [Orlistat], the 50% inhibitory concentration (IC50) (as a rule, the concentration that inhibits the measured activity by half) came to 6.4 µg/mL (≈ 12.9 µM).
